From patent US20180042930A1, “METHODS OF TREATMENT OF MALIGNANCIES” (Celgene Corporation, priority 2016, published 2018)

What was measured:
Format in all cases: in vivo, human
[1] = system: advanced hematologic malignancies with an IDH2 mutation; test: Phase 1/2 study of orally administered COMPOUND A: clinical activity (overall response rate); conditions: 44 subjects treated at 100 mg QD; preliminary efficacy data
Description: This was a Phase 1/2, multicenter, open-label, 3-part (Phase 1 dose escalation, Phase 1 Part 1 Expansion, and Phase 2), safety, PK/PD, and clinical activity evaluation of orally administered COMPOUND A in subjects with advanced hematologic malignancies, for example MDS, that harbor an IDH2 mutation. The study included a dose escalation phase to determine MTD/MAD and/or RP2D, an expansion phase (Part 1) to further evaluate the safety, tolerability, and clinical activity of COMPOUND A, and a Phase 2 to assess the clinical efficacy of COMPOUND A at the RP2D and to further evaluate safety in subjects with refractory and relapsed AML carrying an IDH2 mutation.
Subjects in the dose escalation phase and Part 1 Expansion had the extent of their disease assessed, including bone marrow biopsies and/or aspirates and peripheral blood, at screening, on C1D15, C2D1, and C3D1, every 28 days (peripheral blood only) or every 56 days (bone marrow biopsies and/or aspirates and peripheral blood) thereafter while on study drug treatment, independent of dose delays and/or dose interruptions, and/or at any time when progression of disease was suspected. Response to treatment and treatment decisions in all subjects was determined by the Investigators based on modified International Working Group (IWG) response criteria or other appropriate response criteria for the malignancy under study. […]

[2] = system: subjects with advanced hematologic malignancies with an IDH2 mutation; test: Phase 1/2 study: safety profile (AEs, NCI CTCAE); conditions: 100 mg
Description: (§1) A DLT was defined as outlined below.
Monitoring of AEs, including determination of DLTs, serious adverse events (SAEs), and AEs leading to discontinuation; safety laboratory parameters; physical examination findings; vital signs; 12-lead ECGs; LVEF; and ECOG PS.

MDS and mIDH2 [3] = test: Example 2: clinical response to COMPOUND A monotherapy (IWG 2006 MDS criteria), survival
Description: (§2) Cheson et al., Blood. 108:419-425 (2006). […] Overall survival (OS) was estimated using Kaplan-Meier methods.

[4] = system: patients with MDS and mIDH2; test: Example 2: safety, treatment-emergent adverse events
Description: as §1, §2

MDS and mIDH2 [5] = test: Example 3: clinical response to COMPOUND A monotherapy (IWG 2006 MDS criteria), survival
Description: as §2

[6] = system: MDS and mIDH2 with co-occurring gene mutations; test: Example 3: association of co-occurring somatic mutations (FoundationOne Heme panel) with response to COMPOUND A
Procedure: as §2
Analysis of MDS patients for association of gene mutations found with overall response rate (ORR) was performed on patients who received COMPOUND A and where a clinical response was captured for at least one time point during treatment (Table 12). An average of 2.6 genes were mutated in each patient beyond IDH2.

[7] = 10 evaluable pts with prior HMA Tx
[8] = evaluable pts had ≧5% BM blasts at baseline
[9] = sustained ≧4 weeks, from beginning COMPOUND A Tx
[10] = 13 patients with prior HMA therapy
[11] = IWG 2006, denominators reflect eligibility
[12] = investigator-assessed, evaluable patients had ≧5% bone marrow blasts at baseline
[13] = programmatically adjudicated per IWG 2006 criteria, denominators reflect eligibility

For `CC(C)(O)CNc1nc(Nc2ccnc(C(F)(F)F)c2)nc(-c2cccc(C(F)(F)F)n2)n1.CS(=O)(=O)O` [COMPOUND A, mesylate salt of 2-methyl-1-[(4-[6-(trifluoromethyl)pyridin-2-yl]-6-{[2-(trifluoromethyl)pyridin-4-yl]amino}-1,3,5-triazin-2-yl)amino]propan-2-ol], the overall response rate [1] was 36.4%, the “safety profile, including ≧Grade 3” value [2] was “consistent with that of lower doses” and the “responses in pts with no prior MDS Tx” value (MDS and mIDH2 [3]; 4 pts with no prior MDS Tx) was “a PR and mCR (1 each)”. The “pts with a response among pts who had received prior HMA Tx” value (MDS and mIDH2 [3]; [7]) was 5 pts, the “response rate among pts who had received prior HMA Tx” value (MDS and mIDH2 [3]; [7]) was 50% and the “Best response Hematologic Improvement” value (MDS and mIDH2 [3]; MDS pts N=16) was “(27) %”. The “Best response Hematologic Improvement, pts/evaluable” value (MDS and mIDH2 [3]; MDS pts N=16) was 4/15, the “Overall response rate (CR + PR + mCR + HI), responders/evaluable” value (MDS and mIDH2 [3]; MDS pts N=16, oral 60-300 mg daily, 28-day cycles) was 8/15 and the “Best response Complete Remission” value (MDS and mIDH2 [3]; [8]) was “(11) %”. The “Best response Marrow CR” value (MDS and mIDH2 [3]; [8]) was “(22) %”, the “Best response Marrow CR, pts/evaluable” value (MDS and mIDH2 [3]; [8]) was 2/9 and the “Best response Partial Remission” value (MDS and mIDH2 [3]; [8]) was “(11) %”. For the same molecule, the “Best response Partial Remission, pts/evaluable” value (MDS and mIDH2 [3]; [8]) was 1/9, the “Median OS” value (MDS and mIDH2 [3]; median follow-up of 4.7 months, Kaplan-Meier) was “not reached” and the “Median time to CR, PR, or mCR” value (MDS and mIDH2 [3]; [9]) was 24 days. The “time to CR, PR, or mCR, range” value (MDS and mIDH2 [3]; [9]) was 17 to 87 days, the “Median time to HI” value (MDS and mIDH2 [3]; sustained ≧8 weeks) was 11 days and the “time to HI, range” value (MDS and mIDH2 [3]; sustained ≧8 weeks) was 11 to 60 days. The “Grade 3-4 TEAE hyperbilirubinemia (unconjugated)” value ([4]; MDS pts N=16) was 5 n, the “Grade 3-4 TEAE hypokalemia” value ([4]; MDS pts N=16) was 3 n and the “Grade 3-4 TEAE pneumonia” value ([4]; MDS pts N=16) was 4 n. The “Grade 3-4 TEAE thrombocytopenia” value ([4]; MDS pts N=16) was 3 n, the “Grade 3-4 treatment-emergent AEs (TEAEs)” value ([4]; MDS pts N=16) was 81% and the “Grade 3-4 treatment-emergent AEs (TEAEs), pts” value ([4]; MDS pts N=16) was 13 pts. The “grade 3-4 drug-related TEAE” value ([4]; MDS pts N=16) was 44%, the “grade 3-4 drug-related TEAE, pts” value ([4]; MDS pts N=16) was “Seven” and the “tolerability of daily oral monotherapy” value ([4]; MDS pts with mIDH2) was “well tolerated”. For the same molecule, the “patients with a response among patients who had received prior HMA therapy” value (MDS and mIDH2 [5]; [10]) was 7 patients, the “response rate among patients who had received prior HMA therapy” value (MDS and mIDH2 [5]; [10]) was 54% and the HI-E (MDS and mIDH2 [5]; [11]) was 20%. For the same molecule, the “HI-E, patients/eligible” value (MDS and mIDH2 [5]; [11]) was 3/15, the HI-N (MDS and mIDH2 [5]; [11]) was 40% and the “HI-N, patients/eligible” value (MDS and mIDH2 [5]; [11]) was 4/10. For the same molecule, the HI-P (MDS and mIDH2 [5]; [11]) was 33%, the “HI-P, patients/eligible” value (MDS and mIDH2 [5]; [11]) was 4/12 and the “Overall response rate (CR + PR + mCR + HI)” value (MDS and mIDH2 [5]; MDS patients N=17) was 59%. For the same molecule, the “Overall response rate (CR + PR + mCR + HI), responders/evaluable” value (MDS and mIDH2 [5]; MDS patients N=17) was 10/17, the “Best response Complete Remission” value (MDS and mIDH2 [5]; [12]) was 9% and the “Best response Complete Remission, patients/evaluable” value (MDS and mIDH2 [5]; [12]) was 1/11. The “Best response Marrow CR” value (MDS and mIDH2 [5]; [12]) was 27%, the “Best response Marrow CR, patients/evaluable” value (MDS and mIDH2 [5]; [12]) was 3/11 and the “Best response Partial Remission” value (MDS and mIDH2 [5]; [12]) was 9%. The “Best response Partial Remission, patients/evaluable” value (MDS and mIDH2 [5]; [12]) was 1/11, the median overall survival (MDS and mIDH2 [5]; median follow-up of 7.5 months) was “not reached” and the “patients with bilineage improvement” value (MDS and mIDH2 [5]; of patients who attained HI) was 2 patients. For the same molecule, the “patients with trilineage improvement” value (MDS and mIDH2 [5]; of patients who attained HI) was 2 patients, the “Any Hematologic Improvement (HI)” value (MDS and mIDH2 [5]; [13]) was 29% and the “Any Hematologic Improvement (HI), patients/eligible” value (MDS and mIDH2 [5]; [13]) was 5/17. For the same molecule, the “median time to response” value (MDS and mIDH2 [5]; treated MDS patients) was 21 days, the “time to response, range” value (MDS and mIDH2 [5]; treated MDS patients) was 10 to 87 days and the “ORR OR” value ([6]; ASXL1 mutation) was 2.500. For the same molecule, the “ORR OR” value ([6]; KRAS mutation) was 0.214, the “clinical responses (≧HI) by co-occurring mutation” value ([6]; MDS patients with mIDH2) was “observed in the presence of all mutations except TP53, U2AF1, SETBP1, TCF3, STAG2, NRAS, JAK2 and BRAF” and the “mutations enriched in MDS patients with clinical response (≧HI)” value ([6]; MDS patients with mIDH2) was “patients with mutations in SRSF2, MPL and ASXL1 are enriched”. The “ORR OR” value ([6]; MPL mutation) was 4.231, the “ORR OR” value ([6]; SETBP1 mutation) was 0.082 and the “ORR OR” value ([6]; SRSF2 mutation) was 12.000. For the same molecule, the “ORR OR” value ([6]; TP53 mutation) was 0.082, the “ORR OR” value ([6]; U2AF1 mutation) was 0.082 and the ORR ([6]; patients with ASXL1 mutation) was 0.714. It also gave an ORR ([6]; patients with KRAS mutation) of 0.333, an ORR ([6]; patients with MPL mutation) of 1.000 and an ORR ([6]; patients with SETBP1 mutation) of 0.000. For the same molecule, the ORR ([6]; patients with SRSF2 mutation) was 0.857, the ORR ([6]; patients with TP53 mutation) was 0.000 and the ORR ([6]; patients with U2AF1 mutation) was 0.000.
